Laboratory results as given in ChEMBL document CHEMBL1146443, “New indole derivatives with free radical scavenging activity from Agrocybe cylindracea” (J Nat Prod, 1997).
Values after ≈ are worked out from the molar mass of the structure shown. Active and inactive are the calls of the source. The calls are words filed in the database; no cut-off is given here.

Assays:
[1] = test system: Liver microsomes; assay: Inhibition of lipid peroxidation in rat liver microsome; type: functional
[2] = test system: Liver microsomes; assay: Inhibition of lipid peroxidation in rat liver microsome at 50 ug/mL; type: functional

IC50 [1]	SMILES	Activity [2]
3.9 µg/mL (≈ 20.5 µM)	NC(=O)Cc1c[nH]c2cc(O)ccc12	–
–	O=C(O)Cc1c[nH]c2ccccc12	inactive
4.1 µg/mL (≈ 25.4 µM)	O=Cc1c[nH]c2cc(O)ccc12	–
